Activity calls are given as the source filed them.
Experiments:
[1] = target: T1, E3 ubiquitin-protein ligase XIAP (Homo sapiens, UniProt P98170); test: Counter Screen using XIAP-Bir3 for Chemical Antagonists of Bir1/2 domains of IAP-family anti-apoptotic proteins. [Related pubchem assays (depositor defined):AID1018, AID1449, AID1514, AID1638, AID1749, AID1750, AID488957, AID488963]
[2] = cytotoxicity toward NIH3T3 fibroblasts, dose response, counter-screen, cell-based, ATP luminescence, mouse fibroblasts (AID 2010); assay type: functional;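 note: cells exposed to compound for about 90 hours before reading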
[3] = target: T1, E3 ubiquitin-protein ligase XIAP; test: XIAP antagonists, biochemical, IAP family, fluorescence polarization (AID 1018); assay type: functional
INS1 = test: beta cell apoptosis inhibitors, cytokine rescue, dose response, luminescence, retest (AID 449756); assay type: functional, cell-based; settings: Rattus norvegicus;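 note: cell death triggered by IL-1 beta plus TNF-alpha plus IFN-gamma mixture; protective hits raise ATP signal compared with cytokine alone wells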
[4] = inhibitors of intracellular T. cruzi replication, confirmation, NIH3T3 host cells, beta-gal luminescence (AID 2044); assay type: functional, cell-based;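 note: intracellular parasites grown in NIH/3T3 mouse fibroblasts as host cells; luminescent beta-galactosidase reporter signal from transgenic T. cruzi replicating inside host cells; inhibitors lower the luminescence signal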
Beta Lactamase = Beta Lactamase (Pseudomonas aeruginosa, UniProt Q932Y6); test: beta-lactamase reporter inhibitor potency, dose response, artefact control for TLR9-MyD88 binding inhibitor project, BLA reporter cells, FRET fluorescence (AID 588341); assay type: cell-based;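 note: cell based assay in CHO-K1 cells stably expressing beta-lactamase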
CHO = test: cytotoxicity in TLR9-MyD88 CHO cells, dose response, cytotoxicity control for TLR9-MyD88 binding inhibitor project, cell-based, luminescence (AID 588339); assay type: functional, hamster; settings: Cricetulus griseus;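 note: CHO cells stably coexpressing TLR9 and MyD88 fusions from primary screen; compound exposure lasted 48 hours before viability readout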
[5] = target: Serine/threonine-protein phosphatase (Candida dubliniensis (strain CD36 / CBS 7987 / NCPF 3949 / NRRLY-17841) (Yeast), UniProt B9W6M3); test: calcineurin pathway inhibitors in yeast reporter, dose response, S. cerevisiae, CDRE-lacZ, luminescence, secondary (AID 2388); assay type: functional, cell-based;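 note: yeast reporter cells carrying a calcineurin-responsive lacZ construct stimulated with calcium chloride; luminescent beta-galactosidase reporter signal in whole cells rather than isolated phosphatase activity; potency for inhibition where a drop in reporter signal means calcineurin blockade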
[6] = NIH-3T3 fibroblast cytotoxicity, dose response, cytotoxicity control, cell-based, fluorescence, Alamar Blue, secondary assay (AID 2327); assay type: functional;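 note: NIH-3T3 mouse fibroblasts cultured with fluconazole at 8 µg/mL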
[7] = C. albicans growth with fluconazole, confirmation, fluorescence, retest (AID 2467); assay type: functional, cell-based
[8] = target: NACHT, LRR and PYD domains-containing protein 3 (Homo sapiens, UniProt Q96P20); test: NALP3 inhibitors in yeast, dose response, luminescent (AID 488799); assay type: functional
[9] = target: ATP-dependent molecular chaperone HSP82 (Candida albicans (strain WO-1) (Yeast), UniProt C4YTQ8); test: loss of DOC-induced GRE-beta-galactosidase reporter signal, dose response, Hsp90 inhibitor project, S. cerevisiae, luminescence (AID 2400); assay type: functional, cell-based;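 note: beta-galactosidase luminescence from glucocorticoid response element reporter as proxy for Hsp90 function; inhibitor potency where signal loss means Hsp90 inhibition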
Escherichia coli = test: microbe, parasite or virus in culture
HEK293 [10] = test: cells; settings: Homo sapiens
BJ [11] = test: cytotoxicity toward BJ-TERT fibroblasts, dose response, cell-based, RAS-independent, luminescence (AID 1933); assay type: functional; settings: Homo sapiens
HEK293 [12] = test: cells; settings: Homo sapiens; remark: listed apart in the source
BJ [13] = test: cells; assay type: functional, cell-based; settings: Homo sapiens
BJ [14] = test: cytotoxicity toward BJ-TERT-LT-ST fibroblasts, dose response, cell-based, RAS-independent, luminescence (AID 1935); assay type: functional; settings: Homo sapiens;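 note: BJ fibroblasts immortalized with TERT plus LT and ST oncogenes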
[15] = cytotoxicity toward DRD oncogenic fibroblasts, dose response, cell-based, non-viral oncogenic, luminescence (AID 1934); assay type: functional; settings: Homo sapiens
Mucolipin-3 = target: T2, Mucolipin-3 (Homo sapiens, UniProt Q8TDD5); test: Fluorescence counterscreen assay for […] agonists: dose response cell-based high-throughput screening assay to identify agonists of the transient receptor potential channel ML3 (TRPML3). [Related pubchem assays: 1424, 1448 ]; assay type: functional
T2 sequence (Q8TDD5 whole entry): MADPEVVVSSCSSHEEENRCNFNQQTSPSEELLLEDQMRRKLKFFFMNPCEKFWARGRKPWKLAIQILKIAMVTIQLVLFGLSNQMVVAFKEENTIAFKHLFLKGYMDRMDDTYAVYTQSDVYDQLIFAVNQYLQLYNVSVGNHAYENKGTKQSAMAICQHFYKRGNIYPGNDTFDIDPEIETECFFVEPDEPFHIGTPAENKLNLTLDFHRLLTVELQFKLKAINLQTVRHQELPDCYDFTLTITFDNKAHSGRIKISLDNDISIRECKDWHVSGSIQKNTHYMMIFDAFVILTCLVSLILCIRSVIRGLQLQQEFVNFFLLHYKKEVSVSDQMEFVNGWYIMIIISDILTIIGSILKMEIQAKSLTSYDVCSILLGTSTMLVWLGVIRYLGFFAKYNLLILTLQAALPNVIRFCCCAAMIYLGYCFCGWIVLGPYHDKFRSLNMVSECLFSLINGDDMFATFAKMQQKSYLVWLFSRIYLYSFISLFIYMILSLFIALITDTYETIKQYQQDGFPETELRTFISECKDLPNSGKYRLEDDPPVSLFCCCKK

Ion channel NompC = Ion channel NompC (Danio rerio, UniProt Q7T1G6); test: Dose response cell-based high-throughput screening assay for agonists of the transient receptor potential channel N1 (TRPN1). [Related pubchem assays (depositor defined):AID1424, AID1448]; assay type: functional
[16] = Luminescence Cell-Based Dose Retest to Confirm Inhibitors of Cancer Stem Cells. [Related pubchem assays (depositor defined):AID2717, AID2721]; assay type: functional; settings: Homo sapiens
[17] = cytotoxicity in HMLE control line with eGFP shRNA, dose response, counter-screen for HMLE_sh_ECad selective toxicity project, cell-based, HMLE_sh_eGFP, luminescence (AID 463074); assay type: functional, Homo sapiens;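 note: HMLE human mammary epithelial cells expressing control shRNA against eGFP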
[18] = target: T3, Corticotropin-releasing factor receptor 2/Corticotropin-releasing factor-binding protein (Homo sapiens, UniProt P24387+Q13324); test: activators of CRF receptor 2 with binding protein – uHTS hits, confirmation (AID 602473); assay type: functional; settings: read-out: EC50_Mean
T3 sequence (Q13324 whole entry): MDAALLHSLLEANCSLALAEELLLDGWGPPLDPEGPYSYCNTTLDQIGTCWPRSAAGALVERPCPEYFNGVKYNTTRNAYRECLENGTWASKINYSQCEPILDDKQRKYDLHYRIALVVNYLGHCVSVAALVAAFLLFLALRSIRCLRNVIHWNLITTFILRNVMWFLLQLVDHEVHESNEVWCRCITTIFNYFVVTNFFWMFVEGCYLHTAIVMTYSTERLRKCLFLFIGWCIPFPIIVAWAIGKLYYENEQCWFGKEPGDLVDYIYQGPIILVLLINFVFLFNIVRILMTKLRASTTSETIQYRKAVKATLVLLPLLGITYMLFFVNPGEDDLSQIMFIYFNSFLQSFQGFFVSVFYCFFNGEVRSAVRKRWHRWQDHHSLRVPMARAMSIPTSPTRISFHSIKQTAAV
T3 sequence (P24387 whole entry): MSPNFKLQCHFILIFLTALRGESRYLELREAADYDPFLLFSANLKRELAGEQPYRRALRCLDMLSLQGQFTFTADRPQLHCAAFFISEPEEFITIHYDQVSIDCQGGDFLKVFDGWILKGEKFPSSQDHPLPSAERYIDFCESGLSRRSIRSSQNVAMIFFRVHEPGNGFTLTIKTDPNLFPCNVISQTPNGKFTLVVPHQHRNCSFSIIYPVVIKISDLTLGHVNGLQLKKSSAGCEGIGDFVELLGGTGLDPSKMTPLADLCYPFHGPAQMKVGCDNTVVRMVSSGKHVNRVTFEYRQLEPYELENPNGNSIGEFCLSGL

[19] = HEp-2 cell cytotoxicity, dose response, cytotoxicity control for RSV inhibitor project, HTS (AID 2410); assay type: functional; settings: human respiratory syncytial virus
[20] = Luminescence Cell-Based Dose Response HTS to Identify Activators of Luciferase Translation or Activity in H4 […] Cells. [Related pubchem assays: 1829 (Project Summary), 1814 (Primary HTS)]; assay type: functional
H4 = test: Luminescence Cell-Based Dose Response HTS to Identify Activators of 5'UTR Stem-Loop Driven Prion Protein mRNA Translation in H4 Neuroglioblastoma Cells. [Related pubchem assays: 1829 (Project Summary), 1814 (Primary HTS)]; assay type: functional; settings: Homo sapiens
[21] = target: COUP transcription factor 2 (Homo sapiens, UniProt P24468); test: Luminescence-based cell-based high throughput dose response assay to identify inhibitors of COUP-TFII (NR2F2).; assay type: functional;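 note: HEK293 cells transiently cotransfected with COUP-TFII expression vector and reporter; luciferase reporter luminescence driven by COUP-TFII from the pX2-168 reporter plasmid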
[22] = target: 5-hydroxytryptamine receptor 5A (Homo sapiens, UniProt P47898); test: Counterscreen for agonists of OPRM1-OPRD1 heterodimerization: luminescence-based cell-based high throughput dose response assay to identify agonists of 5-hydroxytryptamine (serotonin) 5A receptor (HTR5A). [Related pubchem assays (depositor defined):AID504326, AID504355, AID504692, AID504904, AID504905]; assay type: functional
[23] = target: Voltage-dependent T-type calcium channel subunit alpha-1H (Homo sapiens, UniProt O95180); assay type: functional;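 note: channel activity triggered by adding a high calcium stimulation buffer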
Mu-type opioid receptor = Mu-type opioid receptor (Homo sapiens, UniProt P35372); test: Counterscreen for agonists of heterodimerization of the mu 1 (OPRM1) and delta 1 (OPRD1) opioid receptors: Luminescence-based cell-based high throughput dose response assay to identify agonists of OPRM1 homodimerization.; assay type: functional;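 note: U2OS cells expressing OPRM1 and beta-arrestin as split beta-galactosidase partners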
[24] = target: Delta-type opioid receptor (Homo sapiens, UniProt P41143); test: Counterscreen for agonists of heterodimerization of the mu 1 (OPRM1) and delta 1 (OPRD1) opioid receptors: Luminescence-based cell-based high throughput dose response assay to identify agonists of OPRD1 homodimerization. [Related pubchem assays (depositor defined):AID504326, AID504355, AID504692, AID504904, AID504905]; assay type: functional
[25] = target: T4, Carboxy-terminal domain RNA polymerase II polypeptide A small phosphatase 1 (Homo sapiens, UniProt Q9GZU7); test: inhibitors of CTDSP1, concentration-response testing, biochemical assay, absorbance-based, actives from ultra-high-throughput screening (AID 540297); assay type: functional
T4 sequence (Q9GZU7 whole entry): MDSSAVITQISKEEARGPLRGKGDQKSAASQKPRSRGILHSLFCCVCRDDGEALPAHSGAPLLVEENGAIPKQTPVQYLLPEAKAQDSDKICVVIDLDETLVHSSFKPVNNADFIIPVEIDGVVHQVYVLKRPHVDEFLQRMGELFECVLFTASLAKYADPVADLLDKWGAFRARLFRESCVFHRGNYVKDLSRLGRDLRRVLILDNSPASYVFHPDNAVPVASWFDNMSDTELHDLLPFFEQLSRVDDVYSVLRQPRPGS

T1 sequence (P98170 whole entry): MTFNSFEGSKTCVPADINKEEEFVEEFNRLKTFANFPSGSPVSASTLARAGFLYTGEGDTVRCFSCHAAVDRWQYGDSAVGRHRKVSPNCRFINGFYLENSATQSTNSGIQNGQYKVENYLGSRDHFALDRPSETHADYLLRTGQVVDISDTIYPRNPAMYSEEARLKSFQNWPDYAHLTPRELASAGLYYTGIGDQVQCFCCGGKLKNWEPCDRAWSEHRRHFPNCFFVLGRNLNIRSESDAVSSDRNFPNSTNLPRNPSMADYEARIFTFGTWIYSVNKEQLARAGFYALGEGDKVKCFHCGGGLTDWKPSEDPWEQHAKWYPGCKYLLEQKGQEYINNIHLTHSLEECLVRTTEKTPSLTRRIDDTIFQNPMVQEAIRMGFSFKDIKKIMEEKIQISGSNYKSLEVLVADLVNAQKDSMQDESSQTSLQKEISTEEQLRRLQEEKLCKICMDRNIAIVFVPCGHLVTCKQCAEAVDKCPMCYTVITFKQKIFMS
Sequence of ATP-dependent molecular chaperone HSP82 (C4YTQ8 whole entry): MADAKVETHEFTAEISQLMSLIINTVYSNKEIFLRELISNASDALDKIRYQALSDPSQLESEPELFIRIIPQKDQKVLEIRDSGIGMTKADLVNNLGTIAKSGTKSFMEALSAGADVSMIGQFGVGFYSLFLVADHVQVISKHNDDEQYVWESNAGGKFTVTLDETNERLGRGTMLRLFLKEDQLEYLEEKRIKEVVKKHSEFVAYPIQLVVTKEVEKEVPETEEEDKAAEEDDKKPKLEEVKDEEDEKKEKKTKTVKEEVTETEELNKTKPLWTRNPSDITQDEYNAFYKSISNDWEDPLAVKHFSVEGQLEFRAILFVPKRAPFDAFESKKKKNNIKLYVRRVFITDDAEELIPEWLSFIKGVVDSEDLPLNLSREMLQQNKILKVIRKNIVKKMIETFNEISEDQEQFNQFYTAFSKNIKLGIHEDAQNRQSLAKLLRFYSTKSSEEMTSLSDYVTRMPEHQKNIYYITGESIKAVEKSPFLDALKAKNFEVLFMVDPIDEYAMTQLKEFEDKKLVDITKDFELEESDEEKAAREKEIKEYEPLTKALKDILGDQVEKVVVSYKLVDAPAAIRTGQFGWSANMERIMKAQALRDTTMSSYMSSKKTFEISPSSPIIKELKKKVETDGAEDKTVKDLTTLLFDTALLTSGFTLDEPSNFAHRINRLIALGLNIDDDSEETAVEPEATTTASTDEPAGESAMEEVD
Sequence of Serine/threonine-protein phosphatase (B9W6M3 whole entry): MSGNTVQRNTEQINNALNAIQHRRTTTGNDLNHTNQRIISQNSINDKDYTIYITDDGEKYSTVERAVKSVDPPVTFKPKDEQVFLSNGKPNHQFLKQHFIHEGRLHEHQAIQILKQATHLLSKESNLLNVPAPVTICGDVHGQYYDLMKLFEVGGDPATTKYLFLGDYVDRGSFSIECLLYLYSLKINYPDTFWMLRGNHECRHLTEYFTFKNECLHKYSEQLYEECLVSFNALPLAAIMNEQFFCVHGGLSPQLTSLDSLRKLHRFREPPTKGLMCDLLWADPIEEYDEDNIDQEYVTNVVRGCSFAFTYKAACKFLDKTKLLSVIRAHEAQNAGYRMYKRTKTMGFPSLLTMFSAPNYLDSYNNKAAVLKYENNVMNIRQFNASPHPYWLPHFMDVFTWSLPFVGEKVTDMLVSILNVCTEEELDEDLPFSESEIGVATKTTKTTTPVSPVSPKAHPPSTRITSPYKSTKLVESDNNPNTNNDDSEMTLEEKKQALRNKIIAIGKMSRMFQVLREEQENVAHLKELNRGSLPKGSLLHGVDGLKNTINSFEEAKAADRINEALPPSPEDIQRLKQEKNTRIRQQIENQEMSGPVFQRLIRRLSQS
Sequence of Ion channel NompC (Q7T1G6 whole entry): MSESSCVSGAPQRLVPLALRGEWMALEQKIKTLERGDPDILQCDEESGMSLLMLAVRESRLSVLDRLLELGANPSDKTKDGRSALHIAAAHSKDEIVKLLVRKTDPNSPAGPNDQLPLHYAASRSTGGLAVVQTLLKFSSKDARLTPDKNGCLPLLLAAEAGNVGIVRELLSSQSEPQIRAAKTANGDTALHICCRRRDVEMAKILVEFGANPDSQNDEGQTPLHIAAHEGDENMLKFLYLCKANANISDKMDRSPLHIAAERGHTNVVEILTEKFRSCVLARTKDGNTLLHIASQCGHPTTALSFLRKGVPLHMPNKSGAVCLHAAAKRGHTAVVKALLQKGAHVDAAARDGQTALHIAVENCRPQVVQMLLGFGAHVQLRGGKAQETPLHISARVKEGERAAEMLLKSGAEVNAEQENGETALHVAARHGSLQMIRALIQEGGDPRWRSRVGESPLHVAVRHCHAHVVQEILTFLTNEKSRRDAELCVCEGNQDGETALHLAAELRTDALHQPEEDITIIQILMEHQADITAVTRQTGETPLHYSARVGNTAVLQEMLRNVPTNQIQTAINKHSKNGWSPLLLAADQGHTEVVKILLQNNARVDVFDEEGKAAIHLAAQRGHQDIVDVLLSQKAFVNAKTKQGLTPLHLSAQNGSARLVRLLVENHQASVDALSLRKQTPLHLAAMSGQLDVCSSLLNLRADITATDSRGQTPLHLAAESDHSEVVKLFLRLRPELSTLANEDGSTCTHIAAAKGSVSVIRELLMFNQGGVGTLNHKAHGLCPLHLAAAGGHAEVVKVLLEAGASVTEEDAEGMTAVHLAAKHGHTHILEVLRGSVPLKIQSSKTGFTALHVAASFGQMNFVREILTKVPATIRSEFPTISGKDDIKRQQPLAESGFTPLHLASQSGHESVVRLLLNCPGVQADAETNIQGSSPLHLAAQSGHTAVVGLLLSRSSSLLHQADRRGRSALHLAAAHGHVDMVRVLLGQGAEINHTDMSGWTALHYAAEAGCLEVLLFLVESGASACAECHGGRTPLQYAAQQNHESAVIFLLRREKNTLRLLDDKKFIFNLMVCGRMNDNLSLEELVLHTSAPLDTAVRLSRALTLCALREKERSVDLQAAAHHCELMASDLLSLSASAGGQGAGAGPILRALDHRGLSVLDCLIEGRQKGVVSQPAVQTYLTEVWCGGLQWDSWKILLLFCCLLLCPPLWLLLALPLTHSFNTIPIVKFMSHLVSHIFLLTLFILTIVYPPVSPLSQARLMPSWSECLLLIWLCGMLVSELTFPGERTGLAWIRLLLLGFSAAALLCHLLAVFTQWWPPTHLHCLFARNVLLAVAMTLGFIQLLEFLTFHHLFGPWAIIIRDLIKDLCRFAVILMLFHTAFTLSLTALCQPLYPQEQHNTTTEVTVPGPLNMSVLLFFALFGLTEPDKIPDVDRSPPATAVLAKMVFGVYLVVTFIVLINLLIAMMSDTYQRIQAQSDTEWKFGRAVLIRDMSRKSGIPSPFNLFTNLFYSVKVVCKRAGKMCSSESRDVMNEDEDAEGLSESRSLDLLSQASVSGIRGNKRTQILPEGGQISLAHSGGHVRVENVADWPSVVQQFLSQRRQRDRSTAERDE
Sequence of Mu-type opioid receptor (P35372 whole entry): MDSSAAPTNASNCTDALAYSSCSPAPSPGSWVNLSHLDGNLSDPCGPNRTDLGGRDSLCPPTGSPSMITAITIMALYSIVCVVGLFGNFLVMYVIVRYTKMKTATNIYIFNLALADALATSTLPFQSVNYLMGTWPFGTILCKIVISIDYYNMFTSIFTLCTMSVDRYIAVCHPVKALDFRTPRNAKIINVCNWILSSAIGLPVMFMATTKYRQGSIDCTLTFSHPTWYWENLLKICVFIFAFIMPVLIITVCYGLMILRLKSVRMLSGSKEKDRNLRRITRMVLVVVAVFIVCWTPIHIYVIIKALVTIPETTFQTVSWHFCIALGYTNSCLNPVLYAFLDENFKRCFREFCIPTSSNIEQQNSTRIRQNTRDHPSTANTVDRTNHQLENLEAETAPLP
Sequence of Beta Lactamase (Q932Y6 whole entry, the tested form may be a part): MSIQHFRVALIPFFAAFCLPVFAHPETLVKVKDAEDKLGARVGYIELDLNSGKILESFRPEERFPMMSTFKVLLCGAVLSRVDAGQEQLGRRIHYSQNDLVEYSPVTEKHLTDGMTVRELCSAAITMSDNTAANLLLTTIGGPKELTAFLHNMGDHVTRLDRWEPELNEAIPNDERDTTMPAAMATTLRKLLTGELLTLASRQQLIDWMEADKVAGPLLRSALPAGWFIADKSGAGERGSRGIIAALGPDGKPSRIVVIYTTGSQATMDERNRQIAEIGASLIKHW
Sequence of 5-hydroxytryptamine receptor 5A (P47898 whole entry): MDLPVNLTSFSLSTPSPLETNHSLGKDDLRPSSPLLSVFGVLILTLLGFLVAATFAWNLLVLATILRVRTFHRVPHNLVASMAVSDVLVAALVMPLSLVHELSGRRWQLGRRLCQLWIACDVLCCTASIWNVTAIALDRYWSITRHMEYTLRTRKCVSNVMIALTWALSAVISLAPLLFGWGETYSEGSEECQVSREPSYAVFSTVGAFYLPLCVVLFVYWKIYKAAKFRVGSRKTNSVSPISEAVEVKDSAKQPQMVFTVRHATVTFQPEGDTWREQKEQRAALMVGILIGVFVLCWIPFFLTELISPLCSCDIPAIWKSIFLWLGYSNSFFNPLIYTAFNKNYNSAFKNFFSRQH
Sequence of COUP transcription factor 2 (P24468 whole entry): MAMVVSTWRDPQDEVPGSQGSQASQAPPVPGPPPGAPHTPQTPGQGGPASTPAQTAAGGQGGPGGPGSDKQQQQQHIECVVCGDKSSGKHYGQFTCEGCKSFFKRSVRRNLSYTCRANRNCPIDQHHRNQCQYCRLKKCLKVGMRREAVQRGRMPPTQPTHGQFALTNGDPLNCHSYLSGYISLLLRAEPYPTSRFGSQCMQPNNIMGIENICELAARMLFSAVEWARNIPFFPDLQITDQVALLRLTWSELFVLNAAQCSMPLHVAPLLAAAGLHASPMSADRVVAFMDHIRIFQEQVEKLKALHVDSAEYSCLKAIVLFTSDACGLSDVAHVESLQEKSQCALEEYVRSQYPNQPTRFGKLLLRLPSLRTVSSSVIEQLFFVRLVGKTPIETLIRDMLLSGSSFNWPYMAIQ

SMILES: Cc1nn(S(=O)(=O)c2ccc(Cl)cc2)c(C)c1Sc1ccc([N+](=O)[O-])cc1
- IC50 [1]: > 100 µM (inactive)
- EC50 [2]: > 60 µM (not active)
- IC50 [3]: > 100 µM (not active)
- AC50 (INS1): 6.21 µM (active)
- EC50 [4]: 1.73 µM (active)

SMILES: O=C(/C=C(O)/C=C/c1ccc(O)cc1)/C=C/c1ccc(O)cc1
- IC50 (Beta Lactamase): 5.13 µM (active)
- IC50 (CHO): 40 µM (inactive)

SMILES: CCOC(=O)N1C(=O)C2(CCCCC2)N(c2ccccc2Cl)C1=S
- EC50 [5]: > 180 µM (inactive)
- EC50 [6]: 39.7 µM (active)
- EC50 [7]: < 0.03 µM (active)
- IC50 [8]: 5.92 µM (active)
- EC50 [9]: 23.1 µM (active)

SMILES: CCCCNC(=O)CCCn1c(=O)[nH]c2ccc(Br)cc2c1=O
- AC50 (Escherichia coli): 53.7 µM (active)

SMILES: C=CCOc1ccc2[nH]c(NC(=O)OC)nc2c1
- EC50 (HEK293 [10]): > 59.6 µM (inactive)
- EC50 (BJ [11]): 1.69 µM (active)
- EC50 (HEK293 [12]): > 59.6 µM (inactive)
- EC50 (BJ [13]): 18.4 µM (inconclusive)
- EC50 (BJ [14]): 1.46 µM (inconclusive)
- EC50 [15]: 1.01 µM (active)

SMILES: Cc1ccc(N2C(=O)CC(N3CCSCC3)C2=O)c(C)c1 (centres undefined)
- EC50 (Mucolipin-3): > 29.9 µM (not active)
- EC50 (Ion channel NompC): > 29.9 µM (inactive)

SMILES: O=[N+]([O-])c1c(C(Cl)Cl)nn(-c2ccc(Cl)cc2)c1N1CCCCC1
- EC50 [5]: > 180 µM (inactive)
- EC50 [6]: > 150 µM (inactive)
- EC50 [7]: 0.436 µM (active)
- EC50 [9]: 18.7 µM (active)

SMILES: COC(=O)c1c(NC(=O)Cc2cccs2)sc(C(=O)N2CCCCC2)c1C
- EC50 (HEK293 [10]): > 59.7 µM (inactive)
- EC50 (HEK293 [12]): > 59.7 µM (inactive)

SMILES: Clc1ccc(CSc2nnc(-c3cccnc3)n2Cc2ccco2)c(Cl)c1
- AC50 [16]: 28 µM (active)
- AC50 [17]: 31.4 µM (active)

SMILES: CCOC(=O)N1CCC(NC(=O)C(NC(=O)C2CCC(C)CC2)C(C)CC)CC1 (centres undefined)
- IC50 [1]: > 100 µM (inactive)
- IC50 [3]: > 100 µM (not active)

SMILES: CC(C)c1nc2c(c(=O)c3ccccc3n2C)c(=O)n1CCc1ccccc1
- EC50 (Mucolipin-3): 3.96 µM (active)
- IC50 (cells): 13.2 µM (active)
- EC50 [18]: 9.93 µM (active)
- EC50 (Ion channel NompC): 3.97 µM (active)
- CC50 [19]: 36 µM (active)

SMILES: O=c1oc(-c2ccccc2)nc2sc3c(c12)CCCC3
- AC50 (Escherichia coli): 74.8 µM (active)
- EC50 [20]: 38.3 µM (active)
- EC50 (H4): 34.1 µM (active)

SMILES: Oc1ccc(Oc2ccc3c(C(F)(F)F)cc(C(F)(F)F)nc3n2)cc1
- IC50 [21]: 28.2 µM (inactive)
- EC50 [22]: > 92.5 µM (inactive)
- EC50 [23]: 3.15 µM (active)
- EC50 (Mu-type opioid receptor): > 92.5 µM (inactive)
- EC50 [24]: > 92.5 µM (inactive)

SMILES: C/C(=N\NC(=O)c1cc(-c2cccc([N+](=O)[O-])c2)[nH]n1)c1ccccc1O
- EC50 [2]: 6.64 µM (active)
- AC50 [16]: 2.35 µM (active)
- AC50 [17]: 50.7 µM (active)
- IC50 [25]: 1.7 µM (active)
- EC50 [4]: 2.18 µM (active)

Source: ChEMBL document CHEMBL1201862, “PubChem BioAssay data set” (2004)
